The record followed here is patent US8916607B2, “Use of piperphentonamine or salts thereof in manufacture of medicaments for treating brain diseases” (Guangzhou Municipal Zhongwei Biotechnology Limited Company, priority 2009, dated 2014).

Assay [1] deals with cerebral edema of mice caused by closed cerebral trauma. The assay is described as follows: closed cerebral trauma model of mice, brain water content. Type of assay: in vivo, Kunming mice. The following applies: 2 mg/kg iv, brain taken after 24 h. As to the method: There were 10 mice in each group.
The closed cerebral trauma model of mice being established after fasting for 16 hours, administering intravenously to each group, striping and taking the brain of mouse after 24 hours, weighing the wet weight, and drying at 70° C. for 24 hours, then weighing the dry weight, and calculating brainwater content; the brain water content which is higher than normal values indicates the cerebral edema.
The grouping method, administer method and model preparation were referred to example 2.

A further assay relates to human brain disease. Briefly: research in treating human brain diseases (no details). Type of assay: in vivo.
In assay [2] the test system is cultured cerebral neurons. The assay is described as follows: NMDA induces neuron injury in primary cultured neurons. Type of assay: cell-based, rat. The following applies: drug 50 mmol/L; NMDA 50 mmol/L, 12 h.
Assay [3] has as its system cerebral hemorrhage in rats induced by collagenase. The assay is described as follows: ICH model induced by collagenase: histopathological observation. Type of assay: in vivo, Wistar rats. The following applies: small doses (0.5 mg/kg) in advance. Here is the method: Influence of piperphentonamine hydrochloride on pathological morphology of cerebral hemorrhage in rats was observed. Each group animals were selected randomly, anesthetized deeply by chloral hydrate at predetermined time point, decollated and the brain were taken out rapidly, then, the brain tissue slices with hematoma (about 5 mm) were cut, and put into 10% formaldehyde solution immediately, fixed for 24 h followed by dehydration by graded ethanol, transparentizing by xylene, immersing in paraffin, embedding, slicing (5 μm), HE staining and sealing. The pathological changes area and the pathological change of the adjacent brain tissue were observed by optical microscope.

What is called mortality is the share of the test organisms that died. Turning to piperphentonamine, the “water content of cerebra (%)” value in assay [1] amounted to 78.31 ± 5.72 %. Besides, the “treating human brain and other diseases” value in the assay on human brain disease is “obvious effect and clinical significance”. The mortality in assay [2] came to 30%. Moreover, the “pathological morphology of cerebral hemorrhage” value in assay [3] is “could ease the pathological changes above-mentioned in different levels”.
